One experiment addresses Beta-secretase 1 (Homo sapiens, UniProt P56817). The experiment in a line: Inhibition of human BACE-1 using (7-Methoxycoumarin-4-acetyl-[Asn670, Leu671]-Amyloid beta/A4 precursor protein 770 fragments 667-676- (2, 4-dinitrophenyl) Lys-Arg-Arg amide trifluoroacetate salt as substrate incubated for 2 hrs by FRET-based analysis.
For the next experiment, the target named is Cholinesterase (Homo sapiens, UniProt P06276). The experiment in a line: Inhibition of human BChE using butyrylthiocholine iodide as substrate preincubated for 30 mins followed by substrate addition by DTNB based Ellman's colorimetric method. For orientation: Ellman's reagent forms a yellow product with free thiols.
Experiment [1] addresses Dual specificity tyrosine-phosphorylation-regulated kinase 1A (Homo sapiens, UniProt Q13627). The experiment in a line: Inhibition of Dyrk1A (unknown origin) incubated for 1 hrs in presence of [gamma-33P]-ATP by microplate scintillation counter based radiometric protein kinase assay.
For a further experiment, the target named is Acetylcholinesterase (Homo sapiens, UniProt P22303). The experiment in a line: Inhibition of human erythrocyte AChE using acetylthiocholine iodide as substrate preincubated for 30 mins followed by substrate addition by DTNB based Ellman's colorimetric method.

A word on the IC50: it is the concentration that gives 50% inhibition.

Sequence of Beta-secretase 1 (P56817 whole entry, the tested form may be a part): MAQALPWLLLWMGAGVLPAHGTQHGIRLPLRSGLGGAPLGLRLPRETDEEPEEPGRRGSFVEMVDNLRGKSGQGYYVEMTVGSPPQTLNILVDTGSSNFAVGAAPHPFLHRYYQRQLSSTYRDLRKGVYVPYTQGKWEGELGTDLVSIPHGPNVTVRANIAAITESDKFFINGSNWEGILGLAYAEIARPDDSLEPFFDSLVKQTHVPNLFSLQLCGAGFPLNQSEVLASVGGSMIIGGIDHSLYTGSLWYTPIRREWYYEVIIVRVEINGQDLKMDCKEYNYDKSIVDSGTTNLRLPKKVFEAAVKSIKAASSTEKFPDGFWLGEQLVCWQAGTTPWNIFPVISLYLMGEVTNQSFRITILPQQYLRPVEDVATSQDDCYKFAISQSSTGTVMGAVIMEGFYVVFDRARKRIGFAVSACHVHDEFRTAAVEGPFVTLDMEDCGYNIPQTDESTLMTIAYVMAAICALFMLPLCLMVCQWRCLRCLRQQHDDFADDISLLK
Sequence of Cholinesterase (P06276 whole entry): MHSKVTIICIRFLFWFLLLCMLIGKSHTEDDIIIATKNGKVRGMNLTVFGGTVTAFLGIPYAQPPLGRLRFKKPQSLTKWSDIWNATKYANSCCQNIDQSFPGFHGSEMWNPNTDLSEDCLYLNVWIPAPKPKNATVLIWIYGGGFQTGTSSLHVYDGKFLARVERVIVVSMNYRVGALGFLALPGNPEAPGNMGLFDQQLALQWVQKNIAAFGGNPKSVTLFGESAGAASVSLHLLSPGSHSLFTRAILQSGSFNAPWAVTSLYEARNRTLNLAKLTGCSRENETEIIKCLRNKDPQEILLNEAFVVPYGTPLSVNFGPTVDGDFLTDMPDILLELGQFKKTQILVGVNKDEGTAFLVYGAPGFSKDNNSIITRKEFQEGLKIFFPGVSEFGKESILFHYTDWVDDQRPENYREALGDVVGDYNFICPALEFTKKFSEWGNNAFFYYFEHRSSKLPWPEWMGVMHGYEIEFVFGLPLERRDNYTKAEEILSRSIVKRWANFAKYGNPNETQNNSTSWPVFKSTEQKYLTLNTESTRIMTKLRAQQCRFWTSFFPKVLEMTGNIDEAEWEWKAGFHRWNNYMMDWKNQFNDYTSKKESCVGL
Sequence of Acetylcholinesterase (P22303 whole entry): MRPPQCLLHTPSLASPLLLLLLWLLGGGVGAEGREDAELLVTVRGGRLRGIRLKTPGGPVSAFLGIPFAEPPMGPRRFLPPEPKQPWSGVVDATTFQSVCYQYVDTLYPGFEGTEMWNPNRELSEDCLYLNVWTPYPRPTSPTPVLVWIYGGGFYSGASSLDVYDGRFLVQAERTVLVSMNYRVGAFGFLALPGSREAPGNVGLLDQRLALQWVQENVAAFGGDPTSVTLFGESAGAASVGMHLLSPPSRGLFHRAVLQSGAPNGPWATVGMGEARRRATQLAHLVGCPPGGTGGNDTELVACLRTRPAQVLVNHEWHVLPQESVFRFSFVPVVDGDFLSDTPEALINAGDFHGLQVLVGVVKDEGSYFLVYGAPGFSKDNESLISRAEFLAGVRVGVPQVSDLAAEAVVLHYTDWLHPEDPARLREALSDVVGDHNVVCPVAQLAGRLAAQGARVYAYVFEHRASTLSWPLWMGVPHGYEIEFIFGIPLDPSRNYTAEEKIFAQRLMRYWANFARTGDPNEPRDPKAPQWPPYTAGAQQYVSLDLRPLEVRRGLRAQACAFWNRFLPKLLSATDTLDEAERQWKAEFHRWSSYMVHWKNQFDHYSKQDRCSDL

Regarding `O=C(Cn1nc(-c2ccccc2)c(-c2ccccc2)nc1=O)Nc1ccccc1[N+](=O)[O-]`, the IC50 at Beta-secretase 1 was 912 nM; against Cholinesterase, more than 10000 nM; in experiment [1] it was more than 10000 nM; against Acetylcholinesterase, 734 nM.
Consider `Cc1ccccc1NC(=O)Cn1nc(-c2ccccc2)c(-c2ccccc2)nc1=O`, for which the IC50 is 742 nM at Beta-secretase 1, more than 10000 nM against Cholinesterase, more than 10000 nM in experiment [1] and 953 nM on Acetylcholinesterase.
Regarding `O=C(Cn1nc(-c2ccccc2)c(-c2ccccc2)nc1=O)Nc1ccc([N+](=O)[O-])cc1Cl`, the IC50 at Beta-secretase 1 was 1830 nM; at Cholinesterase, more than 10000 nM; in experiment [1], 2000 nM; against Acetylcholinesterase, 699 nM.
Take `N#Cc1ccccc1NC(=O)Cn1nc(-c2ccccc2)c(-c2ccccc2)nc1=O`: the concentration for half-maximal inhibition (IC50) on Beta-secretase 1 is 1480 nM; against Cholinesterase, more than 10000 nM; in experiment [1] it was more than 10000 nM; at Acetylcholinesterase, 1860 nM.
For `O=C(Cn1nc(-c2ccccc2)c(-c2ccccc2)nc1=O)Nc1cccc([N+](=O)[O-])c1`, the half-inhibitory concentration (IC50) on Beta-secretase 1 is 1250 nM; against Cholinesterase it was more than 10000 nM; in experiment [1], more than 10000 nM; at Acetylcholinesterase it was 1120 nM.
As for `O=C(Cn1nc(-c2ccccc2)c(-c2ccccc2)nc1=O)Nc1ccc(O)cc1`, the concentration for half-maximal inhibition (IC50) on Beta-secretase 1 is 1620 nM; on Cholinesterase, more than 10000 nM; in experiment [1], more than 10000 nM; against Acetylcholinesterase, 1150 nM.
Consider `O=C(Cn1nc(-c2ccccc2)c(-c2ccccc2)nc1=O)Nc1ccc([N+](=O)[O-])cc1`, for which the concentration for half-maximal inhibition (IC50) on Beta-secretase 1 is 1320 nM; on Cholinesterase, more than 10000 nM; in experiment [1], more than 10000 nM; on Acetylcholinesterase, 1070 nM.
Regarding `N#Cc1cccc(NC(=O)Cn2nc(-c3ccccc3)c(-c3ccccc3)nc2=O)c1`, the 50% inhibitory concentration (IC50) was 1100 nM on Beta-secretase 1, more than 10000 nM against Cholinesterase, more than 10000 nM in experiment [1] and 1250 nM against Acetylcholinesterase.
Consider `O=C(Cn1nc(-c2ccccc2)c(-c2ccccc2)nc1=O)Nc1cccc(Cl)c1`, for which the IC50 is 1440 nM on Beta-secretase 1, more than 10000 nM against Cholinesterase, more than 10000 nM in experiment [1] and 1160 nM on Acetylcholinesterase.
Regarding `O=C(Cn1nc(-c2ccccc2)c(-c2ccccc2)nc1=O)Nc1ccc(F)cc1F`, the IC50 is 1440 nM on Beta-secretase 1, more than 10000 nM at Cholinesterase, more than 10000 nM in experiment [1] and 1160 nM against Acetylcholinesterase.
Consider `O=C(Cn1nc(-c2ccccc2)c(-c2ccccc2)nc1=O)Nc1cc(Br)cc(Br)c1`, for which the half-inhibitory concentration (IC50) at Beta-secretase 1 is 1250 nM; at Cholinesterase, more than 10000 nM; in experiment [1], more than 10000 nM; against Acetylcholinesterase, 772 nM.
In the case of `O=C(Cn1nc(-c2ccccc2)c(-c2ccccc2)nc1=O)Nc1ccccc1Cl`, the IC50 on Beta-secretase 1 is 609 nM; at Cholinesterase, more than 10000 nM; in experiment [1] it was more than 10000 nM; at Acetylcholinesterase, 719 nM.
`O=C(Cn1nc(-c2ccccc2)c(-c2ccccc2)nc1=O)Nc1ccc(Cl)cc1`: the half-inhibitory concentration (IC50) was 1930 nM on Beta-secretase 1, more than 10000 nM on Cholinesterase, more than 10000 nM in experiment [1] and 1410 nM against Acetylcholinesterase.
`O=C(Cn1nc(-c2ccccc2)c(-c2ccccc2)nc1=O)Nc1ccc(F)cc1`: the IC50 at Beta-secretase 1 was 694 nM; against Cholinesterase, more than 10000 nM; in experiment [1], more than 10000 nM; on Acetylcholinesterase, 836 nM.
As for `O=C(Cn1nc(-c2ccccc2)c(-c2ccccc2)nc1=O)Nc1ccccc1O`, the IC50 at Beta-secretase 1 was 953 nM; on Cholinesterase, more than 10000 nM; in experiment [1], more than 10000 nM; against Acetylcholinesterase it was 753 nM.
Consider `O=C(Cn1nc(-c2ccccc2)c(-c2ccccc2)nc1=O)Nc1ccc(Br)cc1`, for which the IC50 was 1860 nM at Beta-secretase 1, more than 10000 nM against Cholinesterase, more than 10000 nM in experiment [1] and 941 nM against Acetylcholinesterase.

The values are drawn from ChEMBL document CHEMBL5500364, “Design, synthesis, and biological evaluation of some 2-(3-oxo-5,6-diphenyl-1,2,4-triazin-2(3H)-yl)-N-phenylacetamide hybrids as MTDLs for Alzheimer's disease therapy” (Eur J Med Chem, 2024).
